Tests used:
HEPG2 = assay: Cytotoxicity, liver cells; format: cell-based, human; settings: human, HepG2 liver cells
[1] = test system: CD4+ T-cells isolated from ova s/c BALB/c mice spleen; assay: Automated patch clamp of CD4+ T cells with 600 nM GABA; format: cell-based, mouse; settings: increasing concentrations of compound, 3 seconds
Experimental: Direct interaction between compounds and CD4^+ T cells may be investigated by electrophysiology. Therefore, CD4^+ T cells may be isolated from the spleen of asthmatic mice and treated with compounds during an automated patch clamp experiment.
To determine the effect of compounds on lymphocytes, CD4^+ T cells from Ova S/C mice were isolated and their interaction with compounds was measured by automated patch clamp. Splenocytes from ova s/c BALB/c mice were prepared following BD Biosciences instructions for preparation of murine splenocytes and red blood cell lysed using BD Pharm Lyse™ lysing solution (BD Biosciences, San Jose, Calif.). Cells were maintained in suspension in RPMI 1640 medium with L-glutamine (Thermo Fisher Scientific Inc., Rockford, Ill.) supplemented with 10% (v/v) fetal bovine serum, 10 μM 2-mercaptoethanol and 1% penicillin/streptomycin in the presence or absence of 100 μg/mL ovalbumin. The cells were maintained in 5% CO2, 95% humidified air at 37° C. for 48 hours. The IonFlux plate layout consists of units of 12 wells: two wells contain intracellular solution (ICS containing […], 1 mM CaCl2, 1 mM MgCl2, 11 mM EGTA, 10 mM HEPES, pH 7.2 with CsOH), one contains cells diluted in extracellular solution (ECS containing 140 mM NaCl, 5 mM […] KCl, 2 mM CaCl2, 1 mM MgCl2, 5 mM D-glucose monohydrate, and 10 mM HEPES, pH 7.4 with NaOH), eight contain the compounds of interest diluted in ECS, and one well is for waste collection. Cells are captured from suspension by applying suction to microscopic channels in ensemble recording arrays. Once the array is fully occupied, the applied suction breaks the membranes of captured cells, which establishes whole cell voltage clamp. For compound applications, pressure is applied to the appropriate compound wells, which introduces the compound into the extracellular solution rapidly flowing over the cells. For recording GABAAR induced currents, cell arrays were voltage clamped at a hyperpolarizing holding potential of −50 mV. Prior to use on the automated patch clamp, cells were centrifuged at 380 g for 5 minutes and resuspended gently in ECS. This was repeated two more times before the cells were dispensed into the plate. GABA and muscimol were diluted to appropriate concentrations in ECS to appropriate concentrations before application and data recorded. […] The concentration-dependent current responses of CD4+ T-cells in the presence of 600 nM GABA and increasing concentration of compounds were carried out with an N of 16 and normalized to the current response of 600 nM GABA.

[2] = Pharmacokinetic analysis in blood, lungs and brain; settings: mouse, 25 mg/kg oral gavage
[3] = Microsomal stability, human liver microsomes; format: in vitro ADME; settings: 10 μM compound
Experimental: The metabolic stability of compounds in vivo can be estimated with the stability of compounds in the presence of liver microsomes. Therefore, 4 μL of 1 mM DMSO solution of test compound at a final concentration of 10 μM were preincubated at 37° C. for 5 minutes on a digital heating shaking dry bath (Fischer scientific, Pittsburgh, Pa.) in a mixture containing 282 μL of water, 80 μL of phosphate buffer (0.5 M, pH 7.4) 20 μL of NADPH Regenerating System Solution A (BD Bioscience, San Jose, Calif.) and 4 μL of NADPH Regenerating System Solution B (BD Bioscience, San Jose, Calif.) in a total volume of 391.2 μL. Following preincubation, the reaction was initiated by addition of 8.8 μL of either human liver microsomes (BD Gentest, San Jose, Calif.) or mouse liver microsomes (Life technologies, Rockford, Ill.) at a protein concentration of 0.5 mg/mL. Aliquots of 50 μL were taken at time intervals of 0 (without microsomes), 10, 20, 30, 40, 50 and 60 minutes. Each aliquot was added to 100 μL of cold acetonitrile solution containing 1 μM of verapamil HCL as internal standard. This was followed by sonication for 10 seconds and centrifugation at 10,000 rpm for 5 minutes. 100 μL of the supernatant was transferred into Spin-X HPLC filter tubes (Corning Incorporated, NY) and centrifuged at 13,000 rpm for 5 minutes. The filtrate was diluted 100-fold and subsequently analyzed by LC-MS/MS with Shimadzu LCMS 8040, (Shimadzu Scientific Instruments, Columbia, Md.). The ratio of the peak areas of the internal standard and test compound was calculated for every time point and the natural log of the ratio were plotted against time to determine the linear slope (k). The metabolic rate (k*C0/C), half-life (0.693/k), and […] (V*k) were calculated, where k is the slope, C0 is the initial concentration of test compound, C is the concentration of microsomes, and V is the volume of incubation in μL per microsomal protein in mg. All experiments were repeated two time in triplicates.

Row | Structure (SMILES) | LD50 HEPG2 (Liver) (HEPG2) [µM] | GABA-induced membrane current of CD4+ T-cells [1] | bioavailability [2] | HLM % remaining after 60 min [3] [%]
1 | C[C@H]1N=C(c2ccccc2F)c2cc(Br)ccc2-n2cnc(C(=O)O)c21 [GL-II-93, (R)-8-bromo-6-(2-fluorophenyl)-4-methyl-4H-benzo[f]imidazo[1,5-a][1,4]diazepine-3-carboxylic acid] | >400 | evoked a very pronounced GABA-induced transmembrane current | excellent bioavailability | 
2 | CCOC(=O)c1ncn2c1[C@@H]1CCCN1C(=O)c1cc(O)ccc1-2 [RJ-02-50, ethyl (S)-7-hydroxy-9-oxo-11,12,13,13a-tetrahydro-9H-benzo[e]imidazo[5,1-c]pyrrolo[1,2-a][1,4]diazepine-1-carboxylate] | >400 | potentiated the GABA-induced membrane current more than SH-053-2F′F—R-CH3-Acid | excellent bioavailability | 91.7 ± 0.2
3 | O=C1c2cc(O)ccc2-n2cnc(-c3cnco3)c2[C@@H]2CCCN12 [RJ-03-30, (S)-7-hydroxy-1-(oxazol-5-yl)-11,12,13,13a-tetrahydro-9H-benzo[e]imidazo[5,1-c]pyrrolo[1,2-a][1,4]diazepin-9-one] | >400 | evoked a very pronounced GABA-induced transmembrane current |  | 91.8 ± 0.2
4 | C#Cc1ccc2c(c1)C(c1ccccc1F)=N[C@H](C)c1c(C(=O)O)ncn1-2 [SH-053-2′F-R-CH3-Acid, (R)-8-ethynyl-6-(2-fluorophenyl)-4-methyl-4H-benzo[f]imidazo[1,5-a][1,4]diazepine-3-carboxylic acid] | >400 | RJ-02-50 potentiated the GABA-induced membrane current more than SH-053-2F′F—R-CH3-Acid | excellent bioavailability | 92.0 ± 0.2

— patent US11447495B2, “Substituted benzo[f]imidazo[1,5-a][1,4]diazepines as GABA(a) receptor modulators” (priority 2016, dated 2022)
